{
  "source": "patent US20110269699A1",
  "about": "“CANCER THERAPY” (priority 2008, published 2011)",
  "key": {"[1]": {"test_system": "226Eμ-myc/Bcl-2 lymphomas", "assay": "Cell cycle analysis of Eμ-myc/Bcl-2 cells treated with HDACi", "type": "cell-based, mouse", "details": "226/Bcl-2", "method": "(§1) Next, the cell cycle profiles of Eμ-myc/Bcl-2 lymphomas treated with oxamflatin and romidepsin over 3 days were assessed.\n(§2) […] Viability of cells as measured by trypan blue exclusion assay, propidium iodide uptake, Annexin V staining, cell cycle analysis, or tetramethylrhodamine ethyl ester staining were done as described (Lindemann et al., Proc. Nat. Acad. Sci. USA 104:8071-8078, 2007)."}, "[2]": {"test_system": "4242Eμ-myc/Bcl-2 lymphomas", "assay": "Cell cycle analysis of Eμ-myc/Bcl-2 cells treated with HDACi", "type": "cell-based, mouse", "details": "4242/Bcl-2", "method": "as §1, §2"}, "Eμ-myc lymphomas": {"test_system": "Eμ-myc lymphomas", "assay": "In vitro cell death analysis (propidium iodide staining, loss of MOMP)", "type": "cell-based, mouse", "method": "(§3) Three different primary Eμ-myc lymphomas overexpressing Bcl-2 and control vector-transduced Eμ-myc cells were tested for sensitivity to the histone deacetylase inhibitors (HDACi) oxamflatin and romidepsin.\n(§4) The primary function of prosurvival Bcl-2 proteins is to inhibit the activity of Bak and Bax proteins and thereby protect the mitochondrial membrane from damage (Cory et al., Nat. Rev. Cancer 2:647-656, 2002). To determine if the induction of apoptosis mediated by romidepsin in 4242Eμ-myc/Bcl-2 and 229Eμ-myc/Bcl-2 lymphomas was via perturbation of the mitochondrial membrane or through some other mechanism, HDACi-induced mitochondrial outer membrane permeabilization (MOMP) was quantitated by staining with tetramethylrhodamine ethyl ester (Molecular Probes).\nas §2"}, "Eμ-myc/Bcl-2 lymphomas": {"test_system": "Eμ-myc/Bcl-2 lymphomas", "assay": "In vitro cell death analysis (propidium iodide staining, loss of MOMP)", "type": "cell-based, mouse", "details": "24-h dose-response assay; Bcl-2 overexpressing", "method": "as §3, §4, §2"}, "[3]": {"test_system": "4242Eμ-myc/Bcl-2 lymphomas", "assay": "In vitro cell death analysis, time course", "type": "cell-based, mouse", "details": "3.0 nmol/L; up to 72 h", "from_the_text": "as §4, §2"}, "[4]": {"test_system": "229Eμ-myc/Bcl-2 lymphomas", "assay": "In vitro cell death analysis, time course", "type": "cell-based, mouse", "from_the_text": "as §4, §1\n(§5) Eμ-myc lymphoma cells (5×10^5/mL) were incubated in the presence of the indicated compounds for 20 h in 1 mL cell culture medium in 24-well plates (Greiner Bio-One). Viability of cells as measured by trypan blue exclusion assay, propidium iodide uptake, Annexin V staining, cell cycle analysis, or tetramethylrhodamine ethyl ester staining were done as described (Lindemann et al., Proc. Nat. Acad. Sci. USA 104:8071-8078, 2007)."}, "[5]": {"test_system": "226Eμ-myc/Bcl-2 lymphomas", "assay": "In vitro cell death analysis, time course", "type": "cell-based, mouse", "details": "3.0 nmol/L; up to 72 h"}, "4242Eμ-myc lymphomas": {"test_system": "4242Eμ-myc lymphomas", "assay": "In vitro cell death analysis (parental control of the Bcl-XL experiment)", "type": "cell-based, mouse", "method": "(§6) To determine if increased expression of Bcl-XL could confer resistance to romidepsin, 4242Eμ-myc/Bcl-XL lymphomas were produced and tested for sensitivity to HDACi.\nas §5"}, "[6]": {"test_system": "4242Eμ-myc/Bcl-XL lymphomas", "assay": "In vitro cell death analysis of Bcl-XL overexpressing lymphomas", "type": "cell-based, mouse", "from_the_text": "as §6, §2"}, "[7]": {"test_system": "acetylated histones H3 and H4", "assay": "Western blot analysis of histone acetylation status", "type": "cell-based, mouse", "details": "for histone acetylation: 3.0 nmol/L, 2, 8, 24 h", "method": "Eμ-myc lymphoma cells were lysed in lysis buffer [0.15 mol/L NaCl, 10 mmol/L Tris-HCl (pH 7.4), 5 μmol/L EDTA, 1% Triton X-100] supplemented with protease inhibitors (leupeptin, pepstatin, and phenylmethylsulfonyl fluoride; Sigma-Aldrich) as described previously (Lindemann et al., Proc. Nat. Acad. Sci. USA 104:8071-8078, 2007). Proteins (30-50 μg) were separated on 10% or 15% SDS polyacrylamide gels electroblotted onto Immobilon-P […] membranes (Millipore). Membranes were incubated with the following antibodies: anti-mouse Bcl-2 (BD PharMingen), anti-mouse Bcl-XL (BD PharMingen), anti-mouse Bcl-w (Chemicon Australia), anti-mouse Mcl-1 (Rockland), anti-mouse A1 (Sapphire Biosciences), anti-Flag tag (Sigma-Aldrich), anti-acetylated histone H3 and antiacetylated histone H4 (Upstate Biosystems), anti-β actin (Sigma-Aldrich), and anti-tubulin (Sigma-Aldrich) overnight at 4° C. followed by subsequent incubation with horseradish peroxidase-conjugated secondary antibodies (DAKO) Immunoreactive bands were visualized by enhanced chemiluminescence (Amersham)."}, "[8]": {"assay": "Maximum tolerated dose in lymphoma-bearing mice", "details": "i.v. once every 4 days for a total of four injections", "method": "For in vivo apoptosis assays, C57BL/6 mice were injected with Eμ-myc lymphomas (5×10^5 cells per animal) and after 10 to 15 days on which lymph nodes became well-palpable romidepsin (5.6 mg/kg) was administered i.v. After the indicated time points, mice were sacrificed and cells were harvested from brachial lymph nodes for fluorescence-activated cell sorting-based assays to measure apoptotic signaling (Lindemann et al., Proc. Nat. Acad. Sci. USA 104:8071-8078, 2007). To assess therapeutic efficacy of romidepsin, C57BL/6 mice were injected with Eμ-myc lymphomas of the indicated genotypes i.v. (5×10^5 cells per animal). Peripheral WBC counts were then monitored until they exceeded 13×10^3/μL (Sysmex Hematology Analyzer K-1000) and romidepsin was administered at 5.6 mg/kg i.v. once every 4 days for a total of four injections. […] Mice in the control cohort received the corresponding amount of vehicle. Cohorts consisted of 8 to 11 mice each, 2 to 3 independently derived lymphomas per genotype. Peripheral WBC counts and body weights were recorded weekly. On signs of major distress or when lymphomas were relapsing as indicated by enlarged brachioaxial lymph nodes, mice were euthanized and a necropsy was done. For analysis of therapeutic efficacy, tumor-induced mortality “events” were recorded. […]"}, "[9]": {"details": "increasing concentrations over 24 h"}},
  "note": "“And” between values parts separate entries of the source, which are not always exact repeats. Identical values can stand only once.",
  "data": [
    {"substance": "(1S,4S,10S,16E,21R)-7-[(2Z)-ethylidene]-4,21-diisopropyl-2-oxa-12,13-dithia-5,8,20,23-tetraazabicyclo[8.7.6]tricos-16-ene-3,6,9,19,22-pentanone [Romidepsin]", "values": [
      {"measurement": "% G1", "setting": "[1]; 24 hr", "result": 48.6, "unit": "%"},
      {"measurement": "% G2/M", "setting": "[1]; 24 hr", "result": 26.6, "unit": "%"},
      {"measurement": "% S phase", "setting": "[1]; 24 hr", "result": 16.4, "unit": "%"},
      {"measurement": "% subG1", "setting": "[1]; 24 hr", "result": 3.7, "unit": "%"},
      {"measurement": "% G1", "setting": "[1]; 48 hr", "result": 52.3, "unit": "%"},
      {"measurement": "% G2/M", "setting": "[1]; 48 hr", "result": 27.1, "unit": "%"},
      {"measurement": "% S phase", "setting": "[1]; 48 hr", "result": 13.5, "unit": "%"},
      {"measurement": "% subG1", "setting": "[1]; 48 hr", "result": 3.7, "unit": "%"},
      {"measurement": "% G1", "setting": "[1]; 72 hr", "result": 78.3, "unit": "%"},
      {"measurement": "% G2/M", "setting": "[1]; 72 hr", "result": 8.7, "unit": "%"},
      {"measurement": "% S phase", "setting": "[1]; 72 hr", "result": 2.5, "unit": "%"},
      {"measurement": "% subG1", "setting": "[1]; 72 hr", "result": 7.8, "unit": "%"},
      {"measurement": "% G1", "setting": "[2]; 24 hr", "result": 66.3, "unit": "%"},
      {"measurement": "% G2/M", "setting": "[2]; 24 hr", "result": 11.4, "unit": "%"},
      {"measurement": "% S phase", "setting": "[2]; 24 hr", "result": 2.1, "unit": "%"},
      {"measurement": "% subG1", "setting": "[2]; 24 hr", "result": 19.3, "unit": "%"},
      {"measurement": "% G1", "setting": "[2]; 48 hr", "result": 53.2, "unit": "%"},
      {"measurement": "% G2/M", "setting": "[2]; 48 hr", "result": 8.5, "unit": "%"},
      {"measurement": "% S phase", "setting": "[2]; 48 hr", "result": 4.6, "unit": "%"},
      {"measurement": "% subG1", "setting": "[2]; 48 hr", "result": 27.2, "unit": "%"},
      {"measurement": "% G1", "setting": "[2]; 72 hr", "result": 34.8, "unit": "%"},
      {"measurement": "% G2/M", "setting": "[2]; 72 hr", "result": 7.1, "unit": "%"},
      {"measurement": "% S phase", "setting": "[2]; 72 hr", "result": 3.0, "unit": "%"},
      {"measurement": "% subG1", "setting": "[2]; 72 hr", "result": 55.3, "unit": "%"},
      {"measurement": "cell killing (outer cell membrane damage, loss of mitochondrial membrane potential)", "setting": "Eμ-myc lymphomas; 24-h dose-response assay", "result": "could effectively kill"},
      {"measurement": "concentration of HDACi required to kill ˜70% of Eμ-myc lymphomas following 24-h treatment", "setting": "Eμ-myc lymphomas; 24-h treatment", "result": "3.0 nmol/L and 3 nmol/L"},
      {"measurement": "cell killing (outer cell membrane damage, loss of mitochondrial membrane potential)", "setting": "Eμ-myc/Bcl-2 lymphomas", "result": "but not Eμ-myc/Bcl-2 lymphomas"},
      {"measurement": "cell killing in time course", "setting": "[3]", "result": "could kill"},
      {"measurement": "cell killing in time course", "setting": "[4]; 3.0 nmol/L, up to 72 h", "result": "could kill"},
      {"measurement": "DNA fragmentation (sub-G1) indicative of apoptosis", "setting": "[4]; over 3 days, data not shown", "result": "increase in the percentage of cells showing DNA fragmentation"},
      {"measurement": "cell killing in time course", "setting": "[5]", "result": "remained relatively insensitive"},
      {"measurement": "plasma membrane integrity and mitochondrial function", "setting": "4242Eμ-myc lymphomas; [9]", "result": "dose-dependent loss of plasma membrane integrity and mitochondrial function"},
      {"measurement": "cell cycle analysis: DNA fragmentation", "setting": "4242Eμ-myc lymphomas; increasing doses", "result": "DNA fragmentation occurred"},
      {"measurement": "cell killing in time course", "setting": "4242Eμ-myc lymphomas; parental Eμ-myc lymphomas, within the first 24 h, 3 nmol/L romidepsin or 0.1 μmol/L oxamflatin", "result": "effectively killed"},
      {"measurement": "plasma membrane integrity and mitochondrial function", "setting": "[6]; [9]", "result": "unaffected"},
      {"measurement": "cell cycle analysis", "setting": "[6]; increasing doses", "result": "arrested in the G1 phase"},
      {"measurement": "histone acetylation", "setting": "[7]; 226Eμ-myc/Bcl-2 lymphomas", "result": "equivalent increase in histone acetylation"},
      {"measurement": "acetylation of histones H3 and H4", "setting": "[7]; 4242Eμ-myc lymphomas, 3.0 nmol/L romidepsin, 0.1 mmol/L oxamflatin, 24-h time course", "result": "induced equivalent acetylation of histones H3 and H4"},
      {"measurement": "histone acetylation", "setting": "[7]; 4242Eμ-myc/Bcl-2 lymphomas", "result": "equivalent increase in histone acetylation"},
      {"measurement": "maximum tolerated dose", "setting": "[8]", "result": 5.6, "unit": "mg/kg"}
    ]}
  ]
}
